# Experimental data published in patent US20250127167A1, “ANTIMICROBIAL PEPTIDES” (priority 2021, published 2025).
# Entries after “also recorded” stand apart in the source; their conditions may differ. Like-named read-outs stand apart in the source and are kept apart here. Where a SMILES comes first, the peptide text is derived from it. [ ]: non-standard residue; d: D form. Phe(4-F) = N[C@@H](Cc1ccc(F)cc1)C(=O)O; Dopa = N[C@@H](Cc1ccc(O)c(O)c1)C(=O)O
# Key:
# T4 bacteriophage [1] = test system: T4 bacteriophage
# Experimental: All the tripeptide powders were firstly dissolved into ethanol and diluted by TDW. The solutions were stirring for 3 h (150 rpm, room temperature) for complete self-assembly. The final concentration is 10 mg/mL. […] As a control, single amino acids (L-DOPA, L-Phenylalanine, and 4-Fluoro-L-phenylalanine) were also used to examine their antiviral activity. To further evaluate the antiviral activity for the peptide assemblies, the antiviral MIC for traditional Ag and Cu nanoparticles were also tested. The stock solutions were two-fold diluted using LB phage to obtain a series of peptide concentrations until the lowest concentration needed was achieved. Next, the 100 μL T4 bacteriophage (10^5 PFU/mL) and 100 μL diluted peptide solutions were transferred into 800 μL LB phage and then the samples were shaken at 150 rpm at room temperature. After 24 h incubation, the samples were centrifuged at 14000 g for 10 min to precipitate the peptide particles. Supernatants were collected and then 10-fold diluted once. Then, the 20 μL supernatants were mixed with 25 μL bacteria (E. coli. ATCC11303) in 1 mL warm 0.6% agarose. Then the mixture was spread out on 1.5% LB agar to form a double agar layer. The plate was incubated at 37° C. for 18 h to form the plaques. The lowest concentration of peptides that prevented virus growth is defined as the antiviral minimum inhibitory concentration (MIC).
# A series of two-fold diluted peptide solutions (1000, 500, 250, 125, 62.5, 31.25, 15.625, and 7.8125 µg/mL) was prepared to measure the antiviral MIC. Next, 100 μL T4 bacteriophage (10^5 PFU/mL) and 100 μL diluted peptide solutions were transferred into 800 μL LB phage; then, the samples were shaken at 150 rpm at room temperature. After 24 h incubation, the samples were centrifuged at 14000×g for 10 min to precipitate the peptide particles. Supernatants were collected and then 10-fold diluted once. Next, the 20 μL supernatants were mixed with 25 μL bacteria (E. coli. ATCC11303) in 1 mL of warm 0.6% agarose. Then, the mixture was spread out on 1.5% LB agar to form a double agar layer. The plate was incubated at 37° C. for 18 h to form plaques. The lowest concentration of peptides that prevented virus growth is defined as the antiviral minimum inhibitory concentration (MIC). L-DOPA, L-phenylalanine, L-Phe(4F), Phe(4F)-Phe(4F), and diphenylalanine were used as controls.
# T4 bacteriophage [2] = experiment: Antiviral activity for coatings against T4 bacteriophage (bacteriophage plaque assay); assay type: cell-based, Escherichia coli bacteriophage T4; conditions: for virus titer of bacteriophage T4 on dipeptide coatings: 10 mg/mL drop-casted three times, bare glass 29000±2000 PFU/mL; for virus titer of bacteriophage T4 on dipeptide coatings / viral titer of T4 bacteriophage / virus titer of T4 bacteriophage: 24 h; for reduction of the viral titer by dipeptide coatings: versus bare glass; for virus titer of T4 bacteriophage: 3-layer coating on glass, bare glass 13579±2839
# Experimental: The antiviral activity performance was measured according to work by Kim et al. and Matsumoto et al. with some modification. The peptide coatings were prepared as described before. We used T4 bacteriophage as the virus when we measured the antiviral activity. Bacteriophage suspension was propagated on E. coli (ATCC 11303) according to ISO 18061, which was grown as the host strain. The mixture obtained by adding 100 μL of fresh T4 phage to an overnight culture of E. coli was incubated for 4 h in a 10 mL LB phage at 37° C. After multiplication, the virus was collected by centrifugation at 4000×g for 10 min at room temperature. The concentration of T4 bacteriophage was measured using the soft agar overlay (double-agar layer) plaque assay method. The supernatant containing the bacteriophage culture was filtrated through cellulose acetate filters (Millipore Acrodisc; the pore sizes were 0.45 μm and 0.22 μm) before use (the final concentration of bacteriophage was 10^9 PFU/mL).
# Ten decimal serial dilutions of the virus suspension were prepared by LB phage. The aqueous suspensions for the E. coli and T4 bacteriophage inactivation experiments contained sample surfaces having dimensions of 1*1 cm and T4 phage at 1.0×10^6 plaque-forming units (PFU)/mL. As a positive control, we also added 16 μL 1.0×10^6 plaque-forming units (PFU)/mL bacteriophage T4 on bare glass and then treated the surface by a UV irradiation (long wave ultraviolet 365 nm) for 3 h. Next, the phages were incubated under humid conditions at room temperature (25° C.) in a dark room for 24 h. After incubation, the phages were harvested by shaking with 2 mL SCDLP broth for 15 min to stop the incubation. The T4 in SCDLP bacteriophage was diluted with LB phage 10-fold. Subsequently, samples and bacteria were mixed with 0.6% agarose. Then the mixture was spread out on 1.5% LB agar to form a double agar layer. The plate was incubated at 37° C. for 18 h to form the plaques. The antiviral activity was defined and calculated as eq 2 below: The initial virus titer (No) and the virus titer after incubation (N) were calculated by counting the plaque number. For each sample, 9 repeats were performed to assess the antiviral activity.
# The antiviral activity performance was measured according to our previous work. Briefly, 10 decimal serial dilutions of the virus suspension were prepared by LB phage. The aqueous suspensions for the E. coli and T4 bacteriophage inactivation experiments contained sample surfaces with dimensions of 1*1 cm and T4 phage at 1.0×106 plaque-forming units (PFU)/mL. Next, the phages were incubated under humid conditions at room temperature (25° C.) in a dark room for 24 h. After incubation, the phages were harvested by shaking them with 2 mL SCDLP broth for 15 min to stop the incubation. The T4 in the SCDLP bacteriophage was diluted with LB phage 10-fold. Subsequently, samples and bacteria were mixed with 0.6% agarose. Then, the mixture was spread out on 1.5% LB agar to form a double agar layer. The plate was incubated at 37° C. for 18 h to form the plaques. The antiviral activity was defined and calculated as follows: The initial virus titer (NO) and the virus titer after incubation (N) were calculated by counting the plaque number. For each sample, 9 repeats were performed to assess the antiviral activity.
# [3] = Stability of peptide coatings (XPS after immersing or washing); assay type: physicochemical; conditions: 3-layer coating
# Experimental: X-ray photoelectron spectroscopy (XPS) analyses were performed by using an AXIS Ultra X-ray photoelectron spectrometer (Kratos Analytical, Ltd., Manchester, UK). The sample's take-off angle was 90°. The vacuum pressure in the analyzing chamber was maintained at 2×10^−9 Torr. High-resolution XPS spectra were collected for F is, O is, C is, and N is peaks with 20 eV pass energy and 0.1 eV step size. Data analyses were carried out using Kratos Vision data reducing processing software (Kratos Analytical, Ltd.) and Casa XPS (Casa Software, Ltd.).
# (§1) To examine the coating stabilities, peptide coatings were immersed into TDW for 5 min or washed with 2 mL TDW three times and then dried at room temperature. X-ray photoelectron spectroscopy (XPS) analyses were performed for the immersed and washed coatings. Moreover, peptide coatings were wiped with a finger at a load of 1 g and then water contact angle measurements were performed using the same method as described in the Contact angle measurements section.
# [4] = Water contact angle measurements of coated glass; assay type: physicochemical; conditions: for water contact angle after wiping: 3-layer coating, wiped at a load of 1 g
# Experimental: Contact angle measurements were examined by using a Theta Lite optical tensiometer (Attension, Finland). Each experimental measurement consisted of three repeats.
# as §1
# Canine coronavirus (CCV) = assay type: cell-based; conditions: for log (TCID50/mL) of CCV: 3-layer coating, 3 h incubation, uncoated glass 4.77±0.12; for effect on CCV (in words): 3-layer coatings / controls
# fruit and plant viruses = experiment: Antiviral activity against fruit viruses
# Text: The potential antiviral activity of DOPA-Phe(Br)—OH against fruit viruses and other microbial sources was also investigated.
# [5] = Table 1, tripeptide assemblies, single amino acids and metal nanoparticles, 24 h incubation
compound,measurement,setting,value
NC(=O)[C@H](Cc1ccc(F)cc1)NC(=O)[C@@H](N)Cc1ccc(O)c(O)c1 [DOPA-Phe(4F)-NH2] (H-[Dopa]-[Phe(4-F)]-NH2),antiviral activity against T4 bacteriophage (in words),T4 bacteriophage [1]; in solution,exhibited antiviral activity
same,Antiviral MIC,"T4 bacteriophage [1]; in solution, T4 bacteriophage",62.5 µg/mL
same,virus titer of bacteriophage T4 on dipeptide coatings,T4 bacteriophage [2],no viruses were detected
same,reduction of the viral titer by dipeptide coatings,T4 bacteriophage [2],~4 logs
COC(=O)[C@H](Cc1ccc(F)cc1)NC(=O)[C@H](Cc1ccc(F)cc1)NC(=O)[C@@H](N)Cc1ccc(O)c(O)c1 [DOPA-Phe(4F)-Phe(4F)-OMe] (H-[Dopa]-[Phe(4-F)]-[Phe(4-F)]-OMe; N-terminus assumed),Antiviral MIC,T4 bacteriophage [1]; [5],31 µg/mL
same,reduction of viral titer compared with bare glass,T4 bacteriophage [2]; 1 layer coating,79%
same,reduction rate (log (N/No)) of virus titers,T4 bacteriophage [2]; 1 layer coating,−0.7
same,viral titer of T4 bacteriophage,T4 bacteriophage [2]; 1 layer coating on glass,2610±369 PFU/mL
same,reduction of viral titer compared with bare glass,T4 bacteriophage [2]; 2 layers coating,91%
same,reduction rate (log (N/No)) of virus titers,T4 bacteriophage [2]; 2 layers coating,−1.1
same,viral titer of T4 bacteriophage,T4 bacteriophage [2]; 2 layers coating on glass,1111±201 PFU/mL
same,reduction of virus titers compared to the glass surfaces,T4 bacteriophage [2]; 3-layer coating,3 log
same,reduction of virus titers compared to the stock solution,T4 bacteriophage [2]; 3-layer coating,6 log
same,virus titer of T4 bacteriophage,T4 bacteriophage [2],3±6 PFU/mL
same,reduction of viral titer compared with bare glass,T4 bacteriophage [2]; 3 layer coating,99.9%
same,reduction rate (log (N/No)) of virus titers,T4 bacteriophage [2]; 3 layers coating,−3.7
same,XPS signals after immersing in TDW for 5 min or washing three times,[3],did not decrease
same,water contact angle,"[4]; 1 layer on glass, bare glass 12±2°",23±2 °
same,water contact angle,[4]; 2 layers on glass,34±2 °
same,water contact angle after wiping,[4],33±1 °
same,water contact angle,[4]; 3 layers on glass,38±4 °
same,log (TCID50/mL) of CCV,Canine coronavirus (CCV),below the detection limit
NC(=O)[C@H](Cc1ccccc1)NC(=O)[C@@H](N)Cc1ccc(O)c(O)c1 [DOPA-Phe-NH2] (H-[Dopa]-Phe-NH2; N-terminus assumed),Antiviral MIC,T4 bacteriophage [1]; 24 h,125.00 µg/mL
same,antiviral activity against T4 bacteriophage (in words),T4 bacteriophage [1]; in solution,exhibited antiviral activity
same,Antiviral MIC,"T4 bacteriophage [1]; in solution, T4 bacteriophage",125 µg/mL
same,virus titer of bacteriophage T4 on dipeptide coatings,T4 bacteriophage [2],no viruses were detected
same,reduction of the viral titer by dipeptide coatings,T4 bacteriophage [2],~4 logs
COC(=O)[C@H](Cc1ccccc1)NC(=O)[C@H](Cc1ccccc1)NC(=O)[C@@H](N)Cc1ccc(O)c(O)c1 [DOPA-Phe-Phe-OMe] (H-[Dopa]-Phe-Phe-OMe; N-terminus assumed),Antiviral MIC,T4 bacteriophage [1]; [5],62 µg/mL
same,reduction of virus titers compared to the glass surfaces,T4 bacteriophage [2]; 3-layer coating,0.2 log
same,virus titer of T4 bacteriophage,T4 bacteriophage [2],8029±205 PFU/mL
same,reduction rate (log (N/No)) of virus titers,T4 bacteriophage [2]; 3 layers coating,−0.2
same,XPS signals after immersing in TDW for 5 min or washing three times,[3],did not change appreciably
same,water contact angle after wiping,[4],25±2 °
same,water contact angle,[4]; 3 layers on glass,29±1 °
same,log (TCID50/mL) of CCV,Canine coronavirus (CCV),below the detection limit
"N[C@@H](Cc1ccc(O)c(O)c1)C(=O)O [L-DOPA, 3,4-dihydroxy-L-phenylalanine]",antiviral activity against T4 bacteriophage (in words),"T4 bacteriophage [1]; in solution, listed as DOPA",did not show any antiviral activity
same,antiviral activity of drop-casted controls against T4 bacteriophage (in words),"T4 bacteriophage [2]; drop-casted three times / deposited on glass, compared to a glass surface",did not decrease the viral titers
same,log (TCID50/mL) of CCV,Canine coronavirus (CCV),4.37±0.31 log (TCID50/mL)
same,effect on CCV (in words),Canine coronavirus (CCV),do not appreciably affect the viability of CCV
same,effect on CCV (in words),Canine coronavirus (CCV); listed as DOPA,did not show any antiviral activity
"N[C@@H](Cc1ccc(F)cc1)C(=O)O [L-Phe(4F), 4-Fluoro-L-phenylalanine]",antiviral activity against T4 bacteriophage (in words),T4 bacteriophage [1]; in solution,did not decrease the viral titer
same,antiviral activity against T4 bacteriophage (in words),"T4 bacteriophage [1]; in solution, listed as 4-Fluoro-L-phenylalanine",no antiviral activity
"N[C@@H](Cc1ccccc1)C(=O)O [L-Phe, L-phenylalanine]",antiviral activity against T4 bacteriophage (in words),"T4 bacteriophage [1]; in solution, listed as L-Phenylalanine",no antiviral activity
same,effect on CCV (in words),Canine coronavirus (CCV),did not show any antiviral activity
DOPA-Phe(Br)—NH2,eradication of fruit and plant viruses,fruit and plant viruses,capable of eradicating fruit and plant viruses
DOPA-Phe(Br)—OH,eradication of fruit and plant viruses,fruit and plant viruses,capable of eradicating fruit and plant viruses
H-Phe-Phe-OH [Diphenylalanine],antiviral activity against T4 bacteriophage (in words),"T4 bacteriophage [1]; in solution, listed as Phe-Phe",did not decrease the viral titer
same,antiviral activity against T4 bacteriophage (in words),"T4 bacteriophage [1]; in solution, listed as diphenylalanine",did not show any antiviral activity
same,antiviral activity of drop-casted controls against T4 bacteriophage (in words),T4 bacteriophage [2],did not decrease the viral titers; also recorded: did not exhibit antiviral activity
same,log (TCID50/mL) of CCV,Canine coronavirus (CCV),4.67±0.42 log (TCID50/mL)
same,effect on CCV (in words),Canine coronavirus (CCV),do not appreciably affect the viability of CCV; also recorded: did not show any antiviral activity
Phe(4F)-Phe(4F)—OMe [Phe(4F)-Phe(4F)-Ome],antiviral activity against T4 bacteriophage (in words),T4 bacteriophage [1]; in solution,did not decrease the viral titer
